{"source": "patent US20250275540A1", "about": "“USE OF PROTOPORPHYRINOGEN OXIDASE” (BEIJING DABEINONG BIOTECHNOLOGY CO., LTD., priority 2022, published 2025)", "tested_on": "transgenic soybean plants", "experiment": "Detection of the herbicide tolerance of the transgenic soybean plants", "type": "in vivo", "design": "key to damage levels rated at grade: grade 0 means that the growth status of plants is essentially consistent with those sprayed with the blank solvent (water); grade 1 means that the average of the damage levels of plants is less than 10%; grade 2 means that the average of the damage levels of plants is greater than 10%; grade 3 means that the average of the damage levels of plants is 100%", "conditions": "for The grade of pesticide damage/plant: 0 / The grade of pesticide damage/plant: 1 / The grade of pesticide damage/plant: 2 / The grade of pesticide damage/plant: 3: 7 DAT", "key": {"[1]": {"conditions": "genotype Control vector, 50 g ai/ha"}, "[2]": {"conditions": "genotype Control vector, 100 g ai/ha"}, "[3]": {"conditions": "genotype PPO-AP-01, 100 g ai/ha"}, "[4]": {"conditions": "genotype PPO-EC-01, 100 g ai/ha"}}}
{"compound": "CC(C)N(C)S(=O)(=O)NC(=O)c1cc(-n2c(=O)cc(C(F)(F)F)n(C)c2=O)c(F)cc1Cl", "note": "[saflufenacil, N′-[2-chloro-4-fluoro-5-(3-methyl-2,6-dioxo-4-(trifluoromethyl)-3,6-dihydro-1 (2H)-pyrimidine)benzoyl]-N-isopropyl-N-methylsulfamide]", "values": [{"measurement": "The grade of pesticide damage/plant: 0", "setting": "genotype CK, 50 g ai/ha", "value": 0, "unit": "plant"}, {"measurement": "The grade of pesticide damage/plant: 1", "setting": "genotype CK, 50 g ai/ha", "value": 0, "unit": "plant"}, {"measurement": "The grade of pesticide damage/plant: 2", "setting": "genotype CK, 50 g ai/ha", "value": 0, "unit": "plant"}, {"measurement": "The grade of pesticide damage/plant: 3", "setting": "genotype CK, 50 g ai/ha", "value": 16, "unit": "plant"}, {"measurement": "The grade of pesticide damage/plant: 0", "setting": "genotype CK, 100 g ai/ha", "value": 0, "unit": "plant"}, {"measurement": "The grade of pesticide damage/plant: 1", "setting": "genotype CK, 100 g ai/ha", "value": 0, "unit": "plant"}, {"measurement": "The grade of pesticide damage/plant: 2", "setting": "genotype CK, 100 g ai/ha", "value": 0, "unit": "plant"}, {"measurement": "The grade of pesticide damage/plant: 3", "setting": "genotype CK, 100 g ai/ha", "value": 16, "unit": "plant"}, {"measurement": "The grade of pesticide damage/plant: 0", "setting": "[1]", "value": 0, "unit": "plant"}, {"measurement": "The grade of pesticide damage/plant: 1", "setting": "[1]", "value": 0, "unit": "plant"}, {"measurement": "The grade of pesticide damage/plant: 2", "setting": "[1]", "value": 0, "unit": "plant"}, {"measurement": "The grade of pesticide damage/plant: 3", "setting": "[1]", "value": 16, "unit": "plant"}, {"measurement": "The grade of pesticide damage/plant: 0", "setting": "[2]", "value": 0, "unit": "plant"}, {"measurement": "The grade of pesticide damage/plant: 1", "setting": "[2]", "value": 0, "unit": "plant"}, {"measurement": "The grade of pesticide damage/plant: 2", "setting": "[2]", "value": 0, "unit": "plant"}, {"measurement": "The grade of pesticide damage/plant: 3", "setting": "[2]", "value": 16, "unit": "plant"}, {"measurement": "The grade of pesticide damage/plant: 0", "setting": "genotype PPO-AP-01, 50 g ai/ha", "value": 0, "unit": "plant"}, {"measurement": "The grade of pesticide damage/plant: 1", "setting": "genotype PPO-AP-01, 50 g ai/ha", "value": 0, "unit": "plant"}, {"measurement": "The grade of pesticide damage/plant: 2", "setting": "genotype PPO-AP-01, 50 g ai/ha", "value": 8, "unit": "plant"}, {"measurement": "The grade of pesticide damage/plant: 3", "setting": "genotype PPO-AP-01, 50 g ai/ha", "value": 8, "unit": "plant"}, {"measurement": "The grade of pesticide damage/plant: 0", "setting": "[3]", "value": 0, "unit": "plant"}, {"measurement": "The grade of pesticide damage/plant: 1", "setting": "[3]", "value": 0, "unit": "plant"}, {"measurement": "The grade of pesticide damage/plant: 2", "setting": "[3]", "value": 0, "unit": "plant"}, {"measurement": "The grade of pesticide damage/plant: 3", "setting": "[3]", "value": 16, "unit": "plant"}, {"measurement": "tolerance to the herbicide (in words)", "setting": "genotype PPO-AP-01, at different concentrations", "value": "basically no tolerance"}, {"measurement": "The grade of pesticide damage/plant: 0", "setting": "genotype PPO-EC-01, 50 g ai/ha", "value": 9, "unit": "plant"}, {"measurement": "The grade of pesticide damage/plant: 1", "setting": "genotype PPO-EC-01, 50 g ai/ha", "value": 7, "unit": "plant"}, {"measurement": "The grade of pesticide damage/plant: 2", "setting": "genotype PPO-EC-01, 50 g ai/ha", "value": 0, "unit": "plant"}, {"measurement": "The grade of pesticide damage/plant: 3", "setting": "genotype PPO-EC-01, 50 g ai/ha", "value": 0, "unit": "plant"}, {"measurement": "The grade of pesticide damage/plant: 0", "setting": "[4]", "value": 8, "unit": "plant"}, {"measurement": "The grade of pesticide damage/plant: 1", "setting": "[4]", "value": 3, "unit": "plant"}, {"measurement": "The grade of pesticide damage/plant: 2", "setting": "[4]", "value": 5, "unit": "plant"}, {"measurement": "The grade of pesticide damage/plant: 3", "setting": "[4]", "value": 0, "unit": "plant"}, {"measurement": "share of the plants that exhibited moderate- or poor-resistant tolerance", "setting": "genotype PPO-EC-01, four-fold field concentration", "value": "about 32%"}, {"measurement": "share of the plants rated at grade 1", "setting": "genotype PPO-EC-01, two-fold field concentration", "value": "about 44%"}, {"measurement": "The grade of pesticide damage/plant: 0", "setting": "genotype PPOA-01, 50 g ai/ha", "value": 16, "unit": "plant"}, {"measurement": "The grade of pesticide damage/plant: 1", "setting": "genotype PPOA-01, 50 g ai/ha", "value": 0, "unit": "plant"}, {"measurement": "The grade of pesticide damage/plant: 2", "setting": "genotype PPOA-01, 50 g ai/ha", "value": 0, "unit": "plant"}, {"measurement": "The grade of pesticide damage/plant: 3", "setting": "genotype PPOA-01, 50 g ai/ha", "value": 0, "unit": "plant"}, {"measurement": "The grade of pesticide damage/plant: 0", "setting": "genotype PPOA-01, 100 g ai/ha", "value": 16, "unit": "plant"}, {"measurement": "The grade of pesticide damage/plant: 1", "setting": "genotype PPOA-01, 100 g ai/ha", "value": 0, "unit": "plant"}, {"measurement": "The grade of pesticide damage/plant: 2", "setting": "genotype PPOA-01, 100 g ai/ha", "value": 0, "unit": "plant"}, {"measurement": "The grade of pesticide damage/plant: 3", "setting": "genotype PPOA-01, 100 g ai/ha", "value": 0, "unit": "plant"}, {"measurement": "The grade of pesticide damage/plant: 0", "setting": "genotype PPOB-01, 50 g ai/ha", "value": 16, "unit": "plant"}, {"measurement": "The grade of pesticide damage/plant: 1", "setting": "genotype PPOB-01, 50 g ai/ha", "value": 0, "unit": "plant"}, {"measurement": "The grade of pesticide damage/plant: 2", "setting": "genotype PPOB-01, 50 g ai/ha", "value": 0, "unit": "plant"}, {"measurement": "The grade of pesticide damage/plant: 3", "setting": "genotype PPOB-01, 50 g ai/ha", "value": 0, "unit": "plant"}, {"measurement": "The grade of pesticide damage/plant: 0", "setting": "genotype PPOB-01, 100 g ai/ha", "value": 16, "unit": "plant"}, {"measurement": "The grade of pesticide damage/plant: 1", "setting": "genotype PPOB-01, 100 g ai/ha", "value": 0, "unit": "plant"}, {"measurement": "The grade of pesticide damage/plant: 2", "setting": "genotype PPOB-01, 100 g ai/ha", "value": 0, "unit": "plant"}, {"measurement": "The grade of pesticide damage/plant: 3", "setting": "genotype PPOB-01, 100 g ai/ha", "value": 0, "unit": "plant"}, {"measurement": "The grade of pesticide damage/plant: 0", "setting": "genotype PPOC-01, 50 g ai/ha", "value": 16, "unit": "plant"}, {"measurement": "The grade of pesticide damage/plant: 1", "setting": "genotype PPOC-01, 50 g ai/ha", "value": 0, "unit": "plant"}, {"measurement": "The grade of pesticide damage/plant: 2", "setting": "genotype PPOC-01, 50 g ai/ha", "value": 0, "unit": "plant"}, {"measurement": "The grade of pesticide damage/plant: 3", "setting": "genotype PPOC-01, 50 g ai/ha", "value": 0, "unit": "plant"}, {"measurement": "The grade of pesticide damage/plant: 0", "setting": "genotype PPOC-01, 100 g ai/ha", "value": 16, "unit": "plant"}, {"measurement": "The grade of pesticide damage/plant: 1", "setting": "genotype PPOC-01, 100 g ai/ha", "value": 0, "unit": "plant"}, {"measurement": "The grade of pesticide damage/plant: 2", "setting": "genotype PPOC-01, 100 g ai/ha", "value": 0, "unit": "plant"}, {"measurement": "The grade of pesticide damage/plant: 3", "setting": "genotype PPOC-01, 100 g ai/ha", "value": 0, "unit": "plant"}, {"measurement": "The grade of pesticide damage/plant: 0", "setting": "genotype PPOD-01, 50 g ai/ha", "value": 16, "unit": "plant"}, {"measurement": "The grade of pesticide damage/plant: 1", "setting": "genotype PPOD-01, 50 g ai/ha", "value": 0, "unit": "plant"}, {"measurement": "The grade of pesticide damage/plant: 2", "setting": "genotype PPOD-01, 50 g ai/ha", "value": 0, "unit": "plant"}, {"measurement": "The grade of pesticide damage/plant: 3", "setting": "genotype PPOD-01, 50 g ai/ha", "value": 0, "unit": "plant"}, {"measurement": "The grade of pesticide damage/plant: 0", "setting": "genotype PPOD-01, 100 g ai/ha", "value": 16, "unit": "plant"}, {"measurement": "The grade of pesticide damage/plant: 1", "setting": "genotype PPOD-01, 100 g ai/ha", "value": 0, "unit": "plant"}, {"measurement": "The grade of pesticide damage/plant: 2", "setting": "genotype PPOD-01, 100 g ai/ha", "value": 0, "unit": "plant"}, {"measurement": "The grade of pesticide damage/plant: 3", "setting": "genotype PPOD-01, 100 g ai/ha", "value": 0, "unit": "plant"}, {"measurement": "The grade of pesticide damage/plant: 0", "setting": "genotype PPOE-01, 50 g ai/ha", "value": 16, "unit": "plant"}, {"measurement": "The grade of pesticide damage/plant: 1", "setting": "genotype PPOE-01, 50 g ai/ha", "value": 0, "unit": "plant"}, {"measurement": "The grade of pesticide damage/plant: 2", "setting": "genotype PPOE-01, 50 g ai/ha", "value": 0, "unit": "plant"}, {"measurement": "The grade of pesticide damage/plant: 3", "setting": "genotype PPOE-01, 50 g ai/ha", "value": 0, "unit": "plant"}, {"measurement": "The grade of pesticide damage/plant: 0", "setting": "genotype PPOE-01, 100 g ai/ha", "value": 15, "unit": "plant"}, {"measurement": "The grade of pesticide damage/plant: 1", "setting": "genotype PPOE-01, 100 g ai/ha", "value": 1, "unit": "plant"}, {"measurement": "The grade of pesticide damage/plant: 2", "setting": "genotype PPOE-01, 100 g ai/ha", "value": 0, "unit": "plant"}, {"measurement": "The grade of pesticide damage/plant: 3", "setting": "genotype PPOE-01, 100 g ai/ha", "value": 0, "unit": "plant"}, {"measurement": "The grade of pesticide damage/plant: 0", "setting": "genotype PPOF-01, 50 g ai/ha", "value": 16, "unit": "plant"}, {"measurement": "The grade of pesticide damage/plant: 1", "setting": "genotype PPOF-01, 50 g ai/ha", "value": 0, "unit": "plant"}, {"measurement": "The grade of pesticide damage/plant: 2", "setting": "genotype PPOF-01, 50 g ai/ha", "value": 0, "unit": "plant"}, {"measurement": "The grade of pesticide damage/plant: 3", "setting": "genotype PPOF-01, 50 g ai/ha", "value": 0, "unit": "plant"}, {"measurement": "The grade of pesticide damage/plant: 0", "setting": "genotype PPOF-01, 100 g ai/ha", "value": 16, "unit": "plant"}, {"measurement": "The grade of pesticide damage/plant: 1", "setting": "genotype PPOF-01, 100 g ai/ha", "value": 0, "unit": "plant"}, {"measurement": "The grade of pesticide damage/plant: 2", "setting": "genotype PPOF-01, 100 g ai/ha", "value": 0, "unit": "plant"}, {"measurement": "The grade of pesticide damage/plant: 3", "setting": "genotype PPOF-01, 100 g ai/ha", "value": 0, "unit": "plant"}, {"measurement": "tolerance to the herbicide (in words)", "setting": "genotypes PPOA-01 to PPOF-01, four-fold field concentration", "value": "high-resistant tolerance"}, {"measurement": "damage levels rated at grade", "setting": "genotypes PPOA-01 to PPOF-01, two-fold field concentration", "value": 0}, {"measurement": "tolerance to the herbicide (in words)", "setting": "genotypes PPOA-01 to PPOF-01 and PPO-EC-01, compared with the control vector and CK", "value": "different extents of tolerance"}]}
